This note sets out measurements from patent US8716293B2, “Macrocyclic integrase inhibitors” (Janssen R&D Ireland, priority 2010, dated 2014).

The pEC50 is −log10 of the EC50, conventionally taken in molar units. One may read the Vss as the apparent volume that relates the amount in the body to the concentration in plasma or blood. Read a low Vss as confinement near the circulation.

Structures are written as SMILES. pEC50: −log10 of the molar value.

The subject of series [1] is HIV-1 SDM strain Q148R. Briefly: cell-based HIV-1 replication assay in MT4-LTR-EGFP cells, Q148R mutant. To be noted: fold change in activity against Q148R mutant compared to wild type HIV. From the text:
(§1) MT4-LTR-enhanced green fluorescent protein (EGFP) cells were obtained by transfecting MT4 cells with a selectable construct encompassing the coding sequences for the HIV LTR as a promoter for the expression of EGFP and subsequent selection of permanently transfected cells. MT4-cytomegalovirus (CMV)-EGFP cells were obtained by selection for permanently transformed MT4 cells with a CMV-EGFP reporter gene. Cell lines were maintained in RPMI 1640 medium supplemented with 10% heat-inactivated fetal calf serum, 2 mM L-glutamine, 0.1% NaHCO3, and antibiotics (0.02% gentamicin and 0.8% G418) and incubated in a humidified incubator with a 5% CO2 atmosphere at 37° C.
(§2) N155H and Q148R mutant Integrase coding sequences were constructed in the pUC19-5′HXB2D vector (XbaI-SalI fragment of pHXB2D), containing the HIV-1 clone HXB2D IN coding sequence, by using a QuikChange site-directed mutagenesis kit (Stratagene, La Jolla, Calif.) and HPLC-purified primers (Genset Oligos, La Jolla, Calif.). Altered plasmid sequences were confirmed by dideoxyribose sequencing. For generation of site-directed mutant (SDM) virus stocks, MT4 cells were subcultured at a density of 250,000 cells/ml on the day before transfection. Cells were pelleted and resuspended in phosphate-buffered saline at a concentration of 3.1×10^6 cells/ml. A 0.8-ml portion ([…]) was used for each transfection. Transfections were performed with a Bio-Rad Gene Pulser (Bio-Rad, Hercules, Calif.) with 0.4-cm electrode cuvettes (Bio-Rad). Cells were electroporated with 10 μg of SalI-linearized pUC19-3′HXB2D (SalI-XbaI fragment of pHXB2D) and 5 μg of SalI-digested SDM at 250 μF and 300 V, followed by a 30-min incubation at room temperature. Ten ml of fresh culture medium was then added to the suspension of transfected cells, and incubation was performed at 37° C. in a humidified atmosphere with 5% CO2. Cell cultures were monitored for the appearance of cytopathic effect (CPE).
(§3) The inhibitory antiviral activity of different compounds was determined in a cell-based HIV-1 replication assay. MT4-LTR-EGFP cells (150,000 cells/ml) were infected with HIV-1 (IIIB or SDM strains Q148R, N155H, or G140S-Q148H; multiplicity of infection [MOI] of 0.0025) in the presence or absence of inhibitor. After 3 days of incubation, the inhibition of HIV replication was quantified by measuring EGFP fluorescence, and expressed as the compound concentration required for 50% inhibition of HIV-1 replication in cell culture (EC50).

Series [2] concerns HIV-1 SDM strain N155H. Briefly: cell-based HIV-1 replication assay in MT4-LTR-EGFP cells, N155H mutant. The conditions noted are these: fold change in activity against N155H mutant compared to wild type HIV.
Description: as §1, §2, §3

In series [3] the test system is HIV-1 SDM strain G140S-Q148H. The experiment in a line: cell-based HIV-1 replication assay in MT4-LTR-EGFP cells, G140S-Q148H mutant. The conditions noted are these: fold change in activity against G140S-Q148H mutant compared to wild type HIV.
Description: as §1, §2, §3

The test system of series [4] is HIV-1 LAI (IIIB). The experiment in a line: antiviral assay in the presence of 50% human serum. In kind it is cell-based. To be noted: MT-4-LTR-EGFP cells, 4 days, resazurin cell viability. The procedure: For the antiviral assay in the presence of 50% human serum, MT-4-LTR-EGFP cells were infected with HIV-1 LAI (IIIB) at a MOI of 0.001 to 0.01 CCID50/cell in RPMI1640 medium. Following 1 h of incubation, cells were washed and plated into a 96-well plate containing serial dilutions of test compound in the presence of 10% fetal calf serum or 50% human serum. After 4 days of incubation, the EC50 in the presence of 50% human serum (EC50/HS) was determined by a cell viability assay using resazurin (as described by Fields, R. D., and M. V. Lancaster (1993) Am. Biotechnol. Lab. 11:48-50).

Series [5] is described as follows: pharmacokinetic evaluation in the rat. In kind it is in vivo, male Sprague-Dawley rats. The conditions noted are these: intravenous bolus 2 mg/kg; for CLp: plasma clearance; for Vss: volume of distribution at steady-state; for t1/2: terminal phase elimination half-life. As to the method:
For determining the pharmacokinetic properties in rat, each HIV integrase inhibitor was dissolved in PEG400/normal saline (70:30 (v/v)) at a nominal concentration of 1 mg/ml and administered (2 ml/kg) to male Sprague-Dawley rats (n=3 per test compound) as an intravenous bolus via a saphenous vein at a dose level of 2 mg/kg. […] Plasma was obtained by centrifugation and stored at −20° C. prior to analysis. Analysis was performed using liquid chromatography (LC) with tandem mass spectrometric detection (MS/MS) in positive ion mode. Each HIV integrase inhibitor was eluted from a reversed-phase column with a gradient of acetonitrile and water containing 0.1% (v/v) formic acid. At the time of analysis plasma samples (50 p. 1) were thawed and […] with 200 μl of acetonitrile containing 0.1% (v/v) formic acid and centrifuged. Aliquots of the supernatant (100 μl) were diluted with 200 μl of water containing 25% (v/v) methanol and 0.1% (v/v) formic acid and injected via an electrospray interface directly into the Mass Spectrometer. Calibration standards and quality controls were prepared in rat plasma at the same time as the samples and analyzed before and after the samples containing HIV integrase inhibitor. Non-compartmental pharmacokinetic analysis of the plasma concentration-time curves was performed using WinNonLin software to provide estimates of the plasma clearance (CLp), volume of distribution at steady-state (Vss) and terminal phase elimination half-life (t1/2).

Regarding `CCN1C[C@H](C)n2c(c(O)c3c(=O)n4nc(c32)N(C)S(=O)(=O)CCCCNC(=O)c2cc(F)ccc2C4)C1=O` [Compound 22], the FC-Q148R in series [1] worked out at 0.5. In series [2], this molecule showed an FC-N155H of 6.0. In series [3], this molecule came in with an FC-G140S-Q148H of 1.7. For the same molecule, the pEC50 in series [4] is 7.85. In series [5], this molecule displayed a CLp of 12 mL/min/kg and a Vss of 0.6 L/kg.
`CCN1C[C@H](C)n2c(c(O)c3c(=O)n4nc(c32)C(=O)N(C)CCCCCOc2cc(F)ccc2C4)C1=O` [Compound 31] yielded an FC-Q148R in series [1] of 0.6. In addition, the FC-N155H in series [2] is 4.6. In series [3], the FC-G140S-Q148H stood at 7.0. Besides, in series [4], the pEC50 was 7.68. In series [5], this molecule registered a CLp of 13 mL/min/kg, a t1/2 of 8.1 h and a Vss of 6 L/kg.
Regarding `CCN1CCCCCOc2cc(F)c(Cl)cc2Cn2nc(c3c(c(O)c4n3[C@@H](C)CN(CC)C4=O)c2=O)C1=O` [Compound 33], in series [1], the FC-Q148R came out at 0.5. The molecule further showed an FC-N155H in series [2] of 5.1. The molecule further registered an FC-G140S-Q148H in series [3] of 2.5. Also, the negative-log EC50 (pEC50) in series [4] is 6.83. For the same molecule, in series [5], the CLp was determined as 11 mL/min/kg, the t1/2 was found to be 4.2 h and the Vss amounted to 1.3 L/kg.
Molecule `CCN1C[C@H](C)n2c(c(O)c3c(=O)n4nc(c32)C(=O)N(C)CCCCCOc2cc(F)c(F)cc2C4)C1=O` [Compound 34] showed an FC-Q148R in series [1] of 0.4. The molecule further registered an FC-N155H in series [2] of 7.4. The same molecule had an FC-G140S-Q148H in series [3] of 5.9. Besides, in series [4], the negative logarithm of the EC50 (pEC50) is 7.74.
The matching figures for `CC(C)N1C[C@H](C)n2c(c(O)c3c(=O)n4nc(c32)C(=O)N(C)CCCCCOc2cc(F)ccc2C4)C1=O` [Compound 35]: 0.4, 4.8, 2.7 and 7.52.
`C[C@H]1CN(C2CC2)C(=O)c2c(O)c3c(=O)n4nc(c3n21)C(=O)NCCCCCOc1cc(F)ccc1C4` [Compound 36] yielded an FC-Q148R in series [1] of 2.4. In addition, the FC-N155H in series [2] was 5.8. The same molecule returned an FC-G140S-Q148H in series [3] of 60.1. Besides, the pEC50 in series [4] was 7.74.
In turn, `C[C@H]1CN(C2CC2)C(=O)c2c(O)c3c(=O)n4nc(c3n21)C(=O)N(C)CCCCCOc1cc(F)ccc1C4` [Compound 37] had an FC-Q148R in series [1] of 0.8. In series [2], this molecule had an FC-N155H of 8.8. The FC-G140S-Q148H in series [3] worked out at 109.5. In series [4], the pEC50 was 7.66.
In series [1], `CCN1CCn2c(c(O)c3c(=O)n4nc(c32)C(=O)N(C)CCCCCOc2cc(F)ccc2C4)C1=O` [Compound 38] showed an FC-Q148R of 1.2. Also, the FC-N155H in series [2] was 6.8. In addition, the FC-G140S-Q148H in series [3] worked out at 106.3. The negative logarithm of the EC50 (pEC50) in series [4] was 7.54.
The molecule `CCN1C[C@H](C)n2c(c(O)c3c(=O)n4nc(c32)NCCCNC(=O)c2cc(F)ccc2C4)C1=O` [Compound 39] yielded an FC-Q148R in series [1] of 1.1. In series [2], this molecule had an FC-N155H of 4.6. The same molecule returned an FC-G140S-Q148H in series [3] of 2.8. For the same molecule, the pEC50 in series [4] is 5.47.
On to `CCN1C[C@H](C)n2c(c(O)c3c(=O)n4nc(c32)NCCCCCNC(=O)c2cc(F)ccc2C4)C1=O` [Compound 40], for which the FC-Q148R in series [1] amounted to 0.4. This molecule gave an FC-N155H in series [2] of 6.2. In series [3], the FC-G140S-Q148H is 3.1. Besides, the pEC50 in series [4] was 5.96.
On to `CCN1C[C@H](C)n2c(c(O)c3c(=O)n4nc(c32)NCCCCCCNC(=O)c2cc(F)ccc2C4)C1=O` [Compound 41], for which the FC-Q148R in series [1] worked out at 0.4. The FC-N155H in series [2] is listed as 6.0. In series [3], this molecule gave an FC-G140S-Q148H of 2.8. For the same molecule, the pEC50 in series [4] is 5.95. Also, in series [5], the CLp is 7 mL/min/kg, the t1/2 is recorded as 5.4 h and the volume of distribution (Vss) came to 0.7 L/kg.
The molecule `CCN1C[C@H](C)n2c(c(O)c3c(=O)n4nc(c32)NCCCCCCN(C)C(=O)c2cc(F)ccc2C4)C1=O` [Compound 42] came in with an FC-Q148R in series [1] of 0.5. This molecule showed an FC-N155H in series [2] of 3.3. The FC-G140S-Q148H in series [3] is given as 2.6. Further, in series [4], the pEC50 was 5.50.
The matching figures for `CCN1C[C@H](C)n2c(c(O)c3c(=O)n4nc(c32)N(C)CCCCCCNC(=O)c2cc(F)ccc2C4)C1=O` [Compound 43]: 0.5, 2.0, 0.8 and 7.00.
As to `CCN1C[C@H](C)n2c(c(O)c3c(=O)n4nc(c32)N2CCN(CC2)C(=O)CCCCOc2cc(F)ccc2C4)C1=O` [Compound 45], in series [1], the FC-Q148R is on record as 0.8. This molecule also came in with an FC-N155H in series [2] of 4.3. In series [3], the FC-G140S-Q148H was 1.6. Further, the negative-log EC50 (pEC50) in series [4] was 8.22. In series [5], this molecule yielded a CLp of 8 mL/min/kg, a t1/2 of 4.2 h and a distribution volume (Vss) of 0.9 L/kg.
In turn, `CCN1C[C@H](C)n2c(c(O)c3c(=O)n4nc(c32)N(C)CCCCCCOc2cc(F)ccc2C4)C1=O` [Compound 46] displayed an FC-Q148R in series [1] of 0.3. The same molecule gave an FC-N155H in series [2] of 40.8. In addition, the FC-G140S-Q148H in series [3] is 3.6. Besides, the pEC50 in series [4] is 5.83.
The matching figures for `CCN1C[C@H](C)n2c(c(O)c3c(=O)n4nc(c32)N2CCN(CCCCOc3cc(F)ccc3C4)S2(=O)=O)C1=O` [Compound 47]: 0.7, 4.4, 3.2 and 8.40.
On to `CCN1C[C@H](C)n2c(c(O)c3c(=O)n4nc(c32)N(C)S(=O)(=O)CC/C=C\COc2cc(F)ccc2C4)C1=O` [Compound 49], for which the FC-Q148R in series [1] stood at 0.5. This molecule also yielded an FC-N155H in series [2] of 5.3. This molecule also came in with an FC-G140S-Q148H in series [3] of 1.6. Also, the negative logarithm of the EC50 (pEC50) in series [4] is 8.10.
In the case of `CCN1C[C@H](C)n2c(c(O)c3c(=O)n4nc(c32)N(C)S(=O)(=O)CCC/C=C\COc2cc(F)ccc2C4)C1=O` [Compound 50], the FC-Q148R in series [1] turned out to be 0.3. Also, the FC-N155H in series [2] is 2.8. In series [3], this molecule showed an FC-G140S-Q148H of 1.2. Further, the pEC50 in series [4] is 7.96.
Molecule `CCN1C[C@H](C)n2c(c(O)c3c(=O)n4nc(c32)N(C)S(=O)(=O)CCC/C=C/COc2cc(F)ccc2C4)C1=O` [Compound 51] yielded an FC-Q148R in series [1] of 0.4. The molecule further showed an FC-N155H in series [2] of 9.6. Moreover, the FC-G140S-Q148H in series [3] turned out to be 3.4. The pEC50 in series [4] was 7.89.
